Measured values taken from ChEMBL document CHEMBL4002573, “New insights into the SAR and drug combination synergy of 2-(quinolin-4-yloxy)acetamides against Mycobacterium tuberculosis” (Eur J Med Chem, 2017).
Values after ≈ are worked out from the molar mass of the structure shown.

Key:
[1] = test system: Mycobacterium tuberculosis; test: microbe, parasite or virus in culture; conditions: H37Rv, 168 h
Description: Antimycobacterial activity against Mycobacterium tuberculosis H37Rv after 7 days by resazurin reduction microplate assay

[2] = Cytotoxicity against mouse RAW264.7 cells assessed as viability at 10 uM after 72 hrs by MTT assay relative to control; assay type: cell-based; conditions: read-out: Activity
[3] = Half life in human liver S9 fraction at 2 uM by HPLC-MS/MS analysis; assay type: ADME, tissue-based
[4] = Thermodynamic solubility of the compound in acetate buffer at pH 4 after 24 hrs by HPLC method; assay type: physicochemical; conditions: read-out: Therm_solubility
[5] = Cytotoxicity against African green monkey Vero cells assessed as viability at 10 uM after 72 hrs by MTT assay relative to control; assay type: cell-based; conditions: chlorocebus sabaeus, read-out: Activity
[6] = Cytotoxicity against human HepG2 cells assessed as viability at 10 uM after 72 hrs by MTT assay relative to control; assay type: cell-based; conditions: read-out: Activity
[7] = test system: Mycobacterium tuberculosis; test: Bactericidal activity against Mycobacterium tuberculosis H37Rv infected in mouse RAW264.7 cells assessed as bacterial colony formation at 5 uM after 5 days (reference value: 4.1 to 4.73 log10CU); assay type: functional
[8] = Kinetic solubility in PBS at pH 7.4; assay type: physicochemical; conditions: read-out: Kinetic_solubility
[9] = Cytotoxicity against human HaCaT cells assessed as viability at 10 uM after 72 hrs by MTT assay relative to control; assay type: cell-based; conditions: read-out: Activity
[10] = Cytotoxicity against mouse N9 cells assessed as viability at 10 uM after 72 hrs by MTT assay relative to control; assay type: cell-based; conditions: read-out: Activity
[11] = test system: Mycobacterium tuberculosis; test: microbe, parasite or virus in culture; conditions: PE-003, 168 h
Description: Antimycobacterial activity against Mycobacterium tuberculosis PE-003 clinical isolate after 7 days by resazurin reduction microplate assay

[12] = Thermodynamic solubility of the compound in 0.1N HCl at pH 1.5 after 24 hrs by HPLC method; assay type: physicochemical; conditions: read-out: Therm_solubility
[13] = Intrinsic clearance in human liver S9 fraction at 2 uM by HPLC-MS/MS analysis; assay type: ADME, tissue-based
[14] = Kinetic solubility in water at pH 5.8; assay type: physicochemical; conditions: read-out: Kinetic_solubility
[15] = test system: Mycobacterium tuberculosis; test: microbe, parasite or virus in culture; conditions: CDCT-4 (1105/09), 168 h
Description: Antimycobacterial activity against Mycobacterium tuberculosis CDCT-4 (1105/09) clinical isolate after 7 days by resazurin reduction microplate assay

[16] = Permeability of the compound at 1 uM […] by PAMPA; assay type: physicochemical; conditions: read-out: permeability
[17] = test system: Mycobacterium tuberculosis; assay type: functional; conditions: H37Rv, 168 h
[18] = test system: Mycobacterium tuberculosis; assay type: functional; conditions: H37Rv, 168 h; remark: listed apart in the source
[19] = test system: Mycobacterium tuberculosis; assay type: functional; conditions: H37Rv, 168 h; remark: listed apart in the source
[20] = test system: Mycobacterium tuberculosis; assay type: functional; conditions: H37Rv, 168 h; remark: listed apart in the source
[21] = test system: Mycobacterium tuberculosis; assay type: functional; conditions: H37Rv, 168 h; remark: listed apart in the source
[22] = test system: Mycobacterium tuberculosis; assay type: functional; conditions: H37Rv, 168 h; remark: listed apart in the source

COc1ccccc1NC(=O)COc1cc(C)nc2ccc(Br)cc12 showed an MIC [1] of 0.78 µM (≈ 0.313 µg/mL).
Work on CCOc1ccc2nc(C)cc(OCC(=O)Nc3ccccc3OC)c2c1 yielded an MIC [1] of 1.75 µM (≈ 0.641 µg/mL).
For COc1ccc2nc(C)cc(OCC(=O)Nc3ccc4c(c3)CCCC4)c2c1, the viability at 72 h, 10 µM [2] was 82%, the half-life at 2 µM [3] was 16.2 min and the solubility thermodynamic at 24 h [4] was 30 µM (≈ 11.3 µg/mL). The viability at 72 h, 10 µM [5] was 94%, the viability at 72 h, 10 µM [6] was 85% and the Activity [7] was 3.33 log10CFU. For the same compound, the solubility kinetic [8] was 1.2 µM (≈ 0.452 µg/mL), the viability at 72 h, 10 µM [9] was 95% and the viability at 72 h, 10 µM [10] was 103%. It also gave an MIC [11] of 0.008 µM (≈ 0.00301 µg/mL), a solubility thermodynamic at 24 h [12] of 90 µM (≈ 33.9 µg/mL) and a CLhep predicted at 2 µM [13] of 15.6 mL/min/kg. The solubility kinetic [14] was 6.6 µM (≈ 2.48 µg/mL), the MIC [1] was 0.05 µM (≈ 0.0188 µg/mL) and the MIC [15] was 0.11 µM (≈ 0.0414 µg/mL).
Work on COc1ccc2nc(C)cc(OCC(=O)c3ccc4ccccc4c3)c2c1 yielded an MIC [1] of 1.75 µM (≈ 0.625 µg/mL).
CCCCc1ccc(NC(=O)COc2cc(C)nc3ccc(OC)cc23)cc1 gave a viability at 72 h, 10 µM [2] of 91%, a half-life at 2 µM [3] of 13.7 min and a solubility thermodynamic at 24 h [4] of 50 µM (≈ 18.9 µg/mL). For the same compound, the viability at 72 h, 10 µM [5] was 90%, the viability at 72 h, 10 µM [6] was 78% and the Activity [7] was 3.05 log10CFU. The solubility kinetic [8] was 2.3 µM (≈ 0.87 µg/mL), the viability at 72 h, 10 µM [9] was 105% and the viability at 72 h, 10 µM [10] was 107%. The MIC [11] was 0.008 µM (≈ 0.00303 µg/mL), the solubility thermodynamic at 24 h [12] was 240 µM (≈ 90.8 µg/mL) and the CLhep predicted at 2 µM [13] was 16.3 mL/min/kg. For the same compound, the solubility kinetic [14] was 2.2 µM (≈ 0.833 µg/mL), the MIC [1] was 0.1 µM (≈ 0.0378 µg/mL) and the MIC [15] was under 0.05 µM.
With CCCc1cc(OCC(=O)Nc2ccccc2OC)c2cc(OC)ccc2n1 the MIC [1] was over 26.3 µM.
Compound COc1ccc2nc(C)cc(OCC(=O)N3CCCCC3)c2c1 has an MIC [1] of over 31.8 µM.
For COc1ccc2nc(C)cc(OCC(=O)N[C@@H]3CCCc4ccccc43)c2c1, the MIC [1] was 13.3 µM (≈ 5 µg/mL).
COc1ccc2nc(C(C)C)cc(OCC(=O)Nc3ccccc3OC)c2c1 gave an MIC [1] of over 26.3 µM.
With COc1ccccc1NC(=O)COc1cc(C)nc2ccc(C(F)(F)F)cc12 the MIC [1] was over 25.6 µM.
COc1ccc2nc(C)cc(OCC(=O)Nc3ccc(C)cc3)c2c1 gave a viability at 72 h, 10 µM [2] of 92%, a Papp at 1 µM [16] of 11.4 ×10⁻⁶ cm/s and a half-life at 2 µM [3] of 25.4 min. The solubility thermodynamic at 24 h [4] was 2100 µM (≈ 706 µg/mL), the viability at 72 h, 10 µM [5] was 95% and the viability at 72 h, 10 µM [6] was 80%. It also gave an Activity [7] of 3.38 log10CFU, a solubility kinetic [8] of 17.9 µM (≈ 6.02 µg/mL) and a viability at 72 h, 10 µM [9] of 100%. For the same compound, the viability at 72 h, 10 µM [10] was 106%, the MIC [11] was 0.04 µM (≈ 0.0135 µg/mL) and the solubility thermodynamic at 24 h [12] was 1200 µM (≈ 404 µg/mL). For the same compound, the CLhep predicted at 2 µM [13] was 13.5 mL/min/kg, the solubility kinetic [14] was 17 µM (≈ 5.72 µg/mL) and the MIC [1] was 0.12 µM (≈ 0.0404 µg/mL). The MIC [15] was 0.04 µM (≈ 0.0135 µg/mL).
With COc1ccccc1NC(=O)COc1cc(C)nc2ccc(F)cc12 the MIC [1] was 14.7 µM (≈ 5 µg/mL).
COc1ccc2nc(C)cc(NCC(=O)Nc3ccc4ccccc4c3)c2c1 gave an MIC [1] of 6.73 µM (≈ 2.5 µg/mL).
For CCCc1ccc(NC(=O)COc2cc(C)nc3ccc(OC)cc23)cc1, the MIC [17] was 20 ng/mL (≈ 0.0549 µM), the viability at 72 h, 10 µM [2] was 83% and the Papp at 1 µM [16] was 1.3 ×10⁻⁶ cm/s. It also gave a half-life at 2 µM [3] of 30.2 min, a solubility thermodynamic at 24 h [4] of 90 µM (≈ 32.8 µg/mL) and a viability at 72 h, 10 µM [5] of 87%. For the same compound, the viability at 72 h, 10 µM [6] was 64%, the Activity [7] was 2.76 log10CFU and the solubility kinetic [8] was 2.4 µM (≈ 0.875 µg/mL). For the same compound, the MIC [18] was 5 ng/mL (≈ 0.0137 µM), the viability at 72 h, 10 µM [9] was 86% and the MIC [19] was 2.5 ng/mL (≈ 0.00686 µM). For the same compound, the MIC [20] was 5 ng/mL (≈ 0.0137 µM), the viability at 72 h, 10 µM [10] was 106% and the MIC [21] was 2.5 ng/mL (≈ 0.00686 µM). It also gave an MIC [11] of 0.005 µM (≈ 0.00182 µg/mL), a solubility thermodynamic at 24 h [12] of 260 µM (≈ 94.8 µg/mL) and a CLhep predicted at 2 µM [13] of 12.7 mL/min/kg. The solubility kinetic [14] was 3.9 µM (≈ 1.42 µg/mL), the MIC [1] was 0.005 to 0.05 µM (≈ 0.00182 to 0.0182 µg/mL) and the MIC [15] was under 0.05 µM. It also gave an MIC [22] of 2.5 ng/mL (≈ 0.00686 µM).
For COc1ccc2nc(C)cc(NCC(=O)Nc3ccccc3OC)c2c1, the MIC [1] was over 28.5 µM.
With COc1ccc2nc(C)cc(OCC(=O)N(C)c3ccccc3OC)c2c1 the MIC [1] was over 27.3 µM.
